Data taken from patent US9408926B2, “KDR and VEGF/KDR binding peptides and their use in diagnosis and therapy” (Bracco Suisse S.A., priority 2002, dated 2016).
“And” between values parts separate entries of the source, which are not always exact repeats. Equal entries are not always repeated.

Tests used:
[1] = system: VEGF-induced migration of HUVECs; assay: VEGF-induced HUVEC migration assay; assay type: cell-based, human; details: for IC50: VEGF 10 ng/mL, 22 hours, read-out: IC50 for blocking VEGF-induced migration
Method: After 22 hours, quantitation of cell migration/invasion was achieved by post-labeling cells in the insert plates with a fluorescent dye and measuring the fluorescence of the invading/migrating cells in a fluorescent plate reader. The VEGF-induced migration was calculated by subtracting the migration that occurred when only basal medium was placed in the lower chamber of the wells.
(§1) Serum-starved HUVECs were placed, 100,000 cells per well, into the upper chambers of BD fibronectin-coated FluoroBlok 24-well insert plates. […] After 22 hours, quantitation of cell migration/invasion was achieved by post-labeling cells in the insert plates with a fluorescent dye and measuring the fluorescence of the invading/migrating cells in a fluorescent plate reader. The VEGF-induced migration was calculated for each experimental condition by subtracting the amount of migration that occurred when only basal medium was added to the lower chamber of the wells.
as §1, with “reader.” for “reader. The”, “observed in” for “that occurred when only basal medium was added to”, “absence” for “lower chamber”, “VEGF.” for “the wells.”
as §1, with “VEGF-stimulated” for “The VEGF-induced”, “derived” for “calculated for each experimental condition”, “basal migration measured in the absence” for “amount”, “VEGF.” for “migration that occurred when only basal medium was added to the lower chamber of the wells.”
Serum-starved HUVECs were placed, 100,000 cells per well, into the upper chambers of BD fibronectin-coated FluoroBlok 24-well insert plates. […] After 22 hours, quantitation of cell migration/invasion was achieved by post-labeling cells in the insert plates with a fluorescent dye and measuring the fluorescence of the invading/migrating cells in a fluorescent plate reader.

[2] = system: SW-480 human colon carcinoma cells; assay: In vivo inhibition of tumor growth, SW-480 xenograft in nude mice; details: for Tumor Weights: 6 mg/kg IV
Method: Female athymic nude mice (Crl:NU/NU-nuBR) at 6-8 weeks of age were used in this study. […] Test Articles and vehicle were administered intraperitoneally (IP), Cisplatin was administered intravenously (IV). Tumor measurements were recorded twice weekly using hand-held calipers. Mice were monitored daily for signs of toxicity and morbidity. At study termination, animals were euthanized by carbon dioxide overdose and necropsied for tissue collection.
A total of nine (9) groups were used in this study. Each group contained ten (10) tumor-bearing mice. Groups 1 and 2 contained untreated and vehicle treated negative control mice, respectively. […] Group 9 contained mice that received cisplatin, a standard chemotherapeutic compound as a positive control.
Dosing began the same day that animals were randomly sorted into groups (Study Day 7). Each dose was removed from the dose vial using aseptic technique for each animal and the injection site was wiped with an alcohol swab prior to dose administration. Doses were administered with a 1.0 mL syringe and a 27-gauge×½″ needle for each mouse
The Test Article- and vehicle-treated mice received daily intraperitoneal (IP) injections for 15 days. Cisplatin was administered every other workday for a total of five (5) doses via an intravenous route.
Clinical Observations of each animal were performed and recorded at least once daily for toxicity, morbidity and mortality. Morbidity included signs of illness such as, but not limited to, emaciation, dehydration, lethargy, hunched posture, unkempt appearance, dyspnea and urine or fecal staining.
In accordance with the protocol tumor measurements were taken twice weekly throughout the study by measuring the length and width of tumors with calibrated calipers. […] Tumor weights were calculated using the following formula: mg=(L×W^2)/2. Animals were euthanized either when mean tumor weight was ≧1000 mg per group over two (2) consecutive measurements, or if tumors became ulcerated, impaired the animal's ability to ambulate or obtain food and water.

[3] = system: KDR-expressing NMU-induced mammary tumor; assay: Contrast ultrasound with D5-containing microbubbles to monitor sunitinib treatment of NMU-induced tumors; assay type: in vivo, rat; details: for Area *10 (tumor size, fundamental B-mode): sunitinib 40 mg/kg/day from day 106, values multiplied by 10
Method: Four (4) female OFA rats (Charles River, Lyon, France) were investigated. At the specific age of 42 days, animals received intraperitoneal injection of N-methyl-N-nitrosourea 50 mg/kg (NMU, Sigma-Aldrich, ref D3254) prepared in 0.9% NaCl, in order to develop a KDR-expressing tumor in the animals (see latency period infra). […] Animals received food and water (tap water) ad libitum.
Stock solution was made weekly and stored at 4° C.
At the level of the tumor site, skin was gently shaved and an ultrasound coupling gel (Aquasonic 100, Parker, USA) was applied between the clinical ultrasound probe and the skin.
The linear probe L12-5 was used.
Vials of a contrast agent containing D5 were reconstituted in 2 ml glucose 5%. […] Emulsification was effected at 12′000 rpm (five minutes). The lyophilizate was reconsistituted as described above. The contrast agent was quickly injected through the catheter placed in the caudal vein at the dose of 2 μl gas per kg. […] Injections were performed at a constant rate of 4 ml/min.
Tumor size was assessed in fundamental-B mode […].
Contrast enhancement was quantified from Dicom files using an in-house quantification and providing, among other parameters, mean echo-signal values in areas of interest as a function of time. The amplitude of the echo signal was expressed as linearized echo amplitude values. Individual frames were analyzed, time-intensity curves were generated and Maximum intensity (Imax) was determined as an index of tumor vascularization and late phase opacification (LPO) was determined at 10 min after injection in the median plane of the tumor.

[4] = molecular target: KDR/VEGF complex on KDR-transfected 293H cells (Homo sapiens, UniProt P35968)
Method: Another stock solution was prepared in the same manner, but lacking VEGF. […] The mixtures were incubated on a rotator at 4 C for 60 minutes, followed by addition of 50 μL of soft release avidin-sepharose (50% slurry in ddH2O) to remove excess peptides and another incubation for 30 minutes on a rotator at 4 C. Finally, the soft release avidin-sepharose was pelleted by centrifuging at 12,000 rpm for 5 minutes at room temperature, and the resulting supernatants were used for the assays.
This establishes a utility for the assay as useful for targeting the KDR/VEGF complex in vitro and in vivo for diagnostic or therapeutic purposes.

[5] = molecular target: T1, KDR-expressing 293H cells (Homo sapiens, UniProt P35968); assay: Bead-binding assay with peptide-conjugated fluorescent beads; assay type: cell-based; details: KDR- versus mock-transfected 293H cells, 40% FBS
T1 construct: Both PCR products were digested with Not1 and ligated together to create the full-length receptor; V5-His (of vector pcDNA6/V5-His C); expressed in transfected cells; host or cells: 293H cells (Invitrogen cat. #11631), transient, lipofectamine 2000
Method: The following procedures were performed to assess the ability of KDR-binding peptides to bind to KDR-expressing cells. In this procedure, KDR-binding peptides containing SEQ ID NOS:264, 337, 363, and 373 were conjugated to fluorescent beads, and their ability to bind to KDR-expressing 293H cells was assessed. The experiments show these peptides can be used to bind particles such as beads to KDR-expressing sites.
As a positive control, biotinylated anti-KDR antibody was incubated with the Neutravidin-coated beads as above, except that 0.03 mg of the biotinylated antibody preparation in PBS (Gibco #14190-136) was used instead of peptide solution. Beads can be stored at 4° C. until needed for up to 1 week.
From the above bead preparations, 0.12 mL was spun for 10 minutes at 2000 rpm in a microcentrifuge at room temperature. The supernatant was removed and 0.06 mL of MES pH 6.0 was added. Each bead solution was then vortexed and sonicated in a water bath 15 min. […] The plates were then read on a Packard FluoroCount fluorometer at excitation 550 nm/emission 620 nm. […]
To calculate the number of beads bound per well, a standard curve with increasing numbers of the same fluorescent beads was included in each assay plate. The standard curve was used to calculate the number of beads bound per well based on the fluorescence intensity of each well.

[6] = molecular target: T2, KDR expressed in transiently-transfected 293H cells (Homo sapiens, UniProt P35968); assay: Binding of biotinylated peptide/neutravidin-HRP complexes to KDR-transfected 293H cells; assay type: cell-based; details: for Binding of tetrameric peptide/avidin-HRP complexes to KDR-transfected cells: 3.33 nM complex; for Reduction of binding of peptide/avidin HRP complex in presence of serum: 40% rat serum, single concentration 2.22-6.66 nM
T2 construct: Both PCR products were digested with Not1 and ligated together to create the full-length receptor; V5-His (of vector pcDNA6/V5-His C); expressed in transfected cells; host or cells: 293H cells (Invitrogen cat. #11631), transient, lipofectamine 2000

[7] = molecular target: KDR; assay: KD, B (μM)
Text: Head of the field: KD, B (μM)
Where the first naming reader finds the target: passage: truncated polypeptides tested for binding to KDR-expressing cells.

## 5 CF-Gly-N{[CH2CH2C(═O)-Gly-N(CH2CH2C(═O)-Adoa-Thr-Lys-Pro-Pro-Arg-OH]2}2 [Adjunct A]
[1]; 100 nM alone
  Block of VEGF-induced migration: not by 100 nM Adjunct A alone

## N.N.[Cl][Pt][Cl] [Cisplatin, reference compound]
[2]; Group 9, intravenous, five doses
  Mean tumor weight on Study Day 22: 995 mg

## N.N.[Cl][Pt][Cl] [Cisplatnin]
[2]; day 4 after cell injection
  Tumor Weights: 34 mg
[2]; day 7 after cell injection
  Tumor Weights: 160 mg
[2]; day 8 after cell injection
  Tumor Weights: 173 mg
[2]; day 11 after cell injection
  Tumor Weights: 407 mg
[2]; day 14 after cell injection
  Tumor Weights: 675 mg
[2]; day 20 after cell injection
  Tumor Weights: 635 mg
[2]; day 21 after cell injection
  Tumor Weights: 839 mg
[2]; day 22 after cell injection
  Tumor Weights: 995 mg

## CC(C)c1cc(/C=C(\C#N)C(=O)NCCCc2ccccc2)cc(C(C)C)c1O [SU-1498, reference compound]
[1]; 3 micromolar
  VEGF-induced migration blocked: 47%

## CCN(CC)CCNC(=O)c1c(C)[nH]c(/C=C2\C(=O)Nc3ccc(F)cc32)c1C [sunitinib, Sunitinib]
[3]; 48 hours after treatment, 40 mg/kg/day oral, individual rats, 40 mg/kg/day
  Change of tumor size as a percentage of the tumor prior sunitinib treatment: −4.6% and −0.7% and 30%
[3]; 48 hours after treatment, individual rats no. 1, 2, 3
  Change of Imax: −11% and +23% and +11%
[3]; rat no. 1, day 108
  Area *10 (tumor size, fundamental B-mode): 20.80
[3]; rat no. 1, day 115
  Area *10 (tumor size, fundamental B-mode): 11.00
[3]; rat no. 1, day 116
  Area *10 (tumor size, fundamental B-mode): 10.10
[3]; rat no. 2, day 108
  Area *10 (tumor size, fundamental B-mode): 26.70
[3]; rat no. 2, day 109
  Area *10 (tumor size, fundamental B-mode): 20.20
[3]; rat no. 3, day 108
  Area *10 (tumor size, fundamental B-mode): 7.5
[3]; rat no. 3, day 114
  Area *10 (tumor size, fundamental B-mode): 2.9
[3]; rat no. 3, day 116
  Area *10 (tumor size, fundamental B-mode): 3.0

## AGPGPCKGYMPHQCWYMGTGGGK [SEQ ID NO:321]
[4]; KDR- versus mock-transfected cells
  Binding of peptide-125I-neutravidin complex in the presence of VEGF: specifically bound to KDR-transfected 293H cells
[4]; VEGF omitted
  Binding of peptide-125I-neutravidin complex in the absence of VEGF: not where VEGF was omitted

## AGPKWCEEDWYYCMITGTGGGK [SEQ ID NO:264]
[5]
  Binding of peptide-conjugated fluorescent beads, JJ spacer: enhanced binding to KDR cells
[6]
  Binding of tetrameric peptide/avidin-HRP complexes to KDR-transfected cells: bound to KDR-transfected cells significantly better than to mock-transfected cells
  Reduction of binding of peptide/avidin HRP complex in presence of serum: not significantly affected

## AGPTWCEDDWYYCWLFGTGGGK [SEQ ID NO:277]
[6]
  Reduction of binding of peptide/avidin HRP complex in presence of serum: more than 50%

## Ac-AGPTWCEDDWYYCWLFGTGGGK (SEQ ID NO:277){Ac-GDSRVCWEDSWGGEVCFRYDPGGGK (SEQ ID NO:294)[JJ-Glut-NH(CH2)4-(S)—CH(NH2)C(═O)—]—NH2}—NH2 [D25]
[1]
  IC50: 5 nM

## Ac-AQDWYYDEILJGRGGRGGRGGK (SEQ ID NO:478) {K[Ac-VCWEDSWGGEVCFRYDPGGGK (SEQ ID NO:337) (JJ-Glut)-NH2]}—NH2 [D17]
[1]
  IC50: ~250 nM

## Ac-AQDWYYDEILSMADQLRHAFLSGGGGGK [SEQ ID NO:356]
[6]
  Reduction of binding of peptide/avidin HRP complex in presence of serum: not significantly affected

## GDSRVCWEDSWGGEVCFGGGK [compound 369]
[7]
  Kd: 1300 nM

## GDSRVCWEDSWGGEVCFRYDPGGGK [SEQ ID NO:294]
[5]
  Binding of peptide-conjugated fluorescent beads, JJ spacer: significantly improved the specific binding to KDR
[6]
  Binding of tetrameric peptide/avidin-HRP complexes to KDR-transfected cells: bound to KDR-transfected cells significantly better than to mock-transfected cells
  Reduction of binding of peptide/avidin HRP complex in presence of serum: not significantly affected

## GDSRVCWEDSWGGEVCFRYGGGK [compound 372]
[7]
  Kd: 60 nM

## SRVCWEDSWGGEVCFRYGGGGK [compound 371]
[7]
  Kd: 35 nM

## VCWEDSWGGEVCFGGGK [compound 368]
[7]
  Kd: 910 nM
